Drawing on ChEMBL document CHEMBL1140726, “Discovery and biological evaluation of 5-aryl-2-furfuramides, potent and selective blockers of the Nav1.8 sodium channel with efficacy in models of neuropathic and inflammatory pain” (J Med Chem, 2008), this text covers inhibition and IC50 for 12 molecules.

The target of data set [1] is T1, Sodium channel protein type 10 subunit alpha (Homo sapiens, UniProt Q9Y5Y9). The data set can be described thus: Inhibition of human recombinant Nav 1.8 channel expressed in HEK293 cells at 1 uM. It is filed as cell-based.
T1 sequence (Q9Y5Y9 whole entry, looked up): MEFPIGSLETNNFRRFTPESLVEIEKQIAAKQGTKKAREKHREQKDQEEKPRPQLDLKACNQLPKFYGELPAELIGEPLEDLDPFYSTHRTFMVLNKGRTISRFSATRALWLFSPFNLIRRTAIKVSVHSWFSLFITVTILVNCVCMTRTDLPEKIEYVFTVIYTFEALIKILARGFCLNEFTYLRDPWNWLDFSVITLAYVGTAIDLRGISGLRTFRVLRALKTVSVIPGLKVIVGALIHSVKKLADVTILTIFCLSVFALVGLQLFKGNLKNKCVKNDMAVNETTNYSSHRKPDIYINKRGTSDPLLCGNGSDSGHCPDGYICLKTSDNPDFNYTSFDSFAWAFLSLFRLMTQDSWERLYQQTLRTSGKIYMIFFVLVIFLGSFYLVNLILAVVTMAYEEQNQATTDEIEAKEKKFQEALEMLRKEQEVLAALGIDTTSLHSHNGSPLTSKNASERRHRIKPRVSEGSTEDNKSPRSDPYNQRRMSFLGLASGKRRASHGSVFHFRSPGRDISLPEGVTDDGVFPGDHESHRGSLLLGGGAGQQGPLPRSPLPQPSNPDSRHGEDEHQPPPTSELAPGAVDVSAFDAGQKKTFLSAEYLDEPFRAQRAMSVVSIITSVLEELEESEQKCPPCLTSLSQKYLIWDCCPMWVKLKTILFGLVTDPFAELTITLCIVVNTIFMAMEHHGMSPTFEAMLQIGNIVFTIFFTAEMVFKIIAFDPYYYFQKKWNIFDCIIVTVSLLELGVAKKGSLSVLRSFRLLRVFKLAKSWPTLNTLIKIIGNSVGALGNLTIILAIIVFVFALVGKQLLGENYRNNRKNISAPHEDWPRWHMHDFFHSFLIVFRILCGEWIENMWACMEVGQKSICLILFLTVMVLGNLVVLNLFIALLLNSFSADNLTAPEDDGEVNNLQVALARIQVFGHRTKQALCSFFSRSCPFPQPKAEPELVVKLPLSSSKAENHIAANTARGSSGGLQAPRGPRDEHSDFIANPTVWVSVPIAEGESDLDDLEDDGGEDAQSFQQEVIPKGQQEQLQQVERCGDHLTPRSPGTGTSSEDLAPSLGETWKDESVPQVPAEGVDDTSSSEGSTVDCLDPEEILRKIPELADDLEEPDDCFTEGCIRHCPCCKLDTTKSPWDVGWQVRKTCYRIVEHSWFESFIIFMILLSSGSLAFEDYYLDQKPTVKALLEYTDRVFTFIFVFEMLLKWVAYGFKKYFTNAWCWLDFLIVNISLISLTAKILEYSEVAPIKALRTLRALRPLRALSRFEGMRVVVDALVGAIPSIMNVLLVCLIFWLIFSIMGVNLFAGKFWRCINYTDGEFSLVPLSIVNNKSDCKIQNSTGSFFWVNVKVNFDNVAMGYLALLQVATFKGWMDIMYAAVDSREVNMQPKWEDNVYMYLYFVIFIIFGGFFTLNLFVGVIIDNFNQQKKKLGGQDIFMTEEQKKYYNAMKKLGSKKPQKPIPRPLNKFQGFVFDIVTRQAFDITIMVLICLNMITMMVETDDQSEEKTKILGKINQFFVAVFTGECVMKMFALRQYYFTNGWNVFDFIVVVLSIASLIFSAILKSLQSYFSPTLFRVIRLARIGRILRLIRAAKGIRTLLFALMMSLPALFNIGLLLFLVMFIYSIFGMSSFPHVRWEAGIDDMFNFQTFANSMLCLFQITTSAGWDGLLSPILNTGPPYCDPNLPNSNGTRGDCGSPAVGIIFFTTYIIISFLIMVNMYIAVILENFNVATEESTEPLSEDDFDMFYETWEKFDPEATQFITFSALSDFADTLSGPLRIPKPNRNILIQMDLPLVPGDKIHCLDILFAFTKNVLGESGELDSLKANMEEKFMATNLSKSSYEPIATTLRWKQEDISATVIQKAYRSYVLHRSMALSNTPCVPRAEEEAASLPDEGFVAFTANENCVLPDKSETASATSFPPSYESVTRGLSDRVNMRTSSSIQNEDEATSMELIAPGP
The target in data set [2] is T1, Sodium channel protein type 10 subunit alpha. Kind of data set: Inhibition of human recombinant Nav 1.8 channel expressed in HEK293 cells at 3 uM. It is filed as cell-based.
The target in data set [3] is Sodium channel protein type 10 subunit alpha (Mus musculus, UniProt Q6QIY3). The data set can be described thus: Inhibition of mouse recombinant Nav 1.8 channel expressed in HEK293 cells by isotopic efflux assay. Type of data set: cell-based.
For data set [4], the target named is T1, Sodium channel protein type 10 subunit alpha. The data set can be described thus: Activity at human recombinant Nav 1.8 channel expressed in HEK293 cells in resting state with prepulse voltage of -100 mV assessed as blockade of TTx-resistant sodium current at 1 uM. It is filed as cell-based.
The target of data set [5] is Sodium channel protein type 3 subunit alpha (Homo sapiens) (UniProt Q9NY46). The data set can be described thus: Inhibition of human Nav1.3 channel at 1 uM.
The target in data set [6] is Sodium channel protein type 2 subunit alpha (Homo sapiens) (UniProt Q99250). The data set can be described thus: Inhibition of human Nav1.2 channel at 1 uM.
In data set [7] the target is T1, Sodium channel protein type 10 subunit alpha. The data set can be described thus: Activity at human recombinant Nav 1.8 channel expressed in HEK293 cells in resting state with prepulse voltage of -100 mV assessed as blockade of TTx-resistant sodium current at 3 uM. It is filed as cell-based.
The target is the same in data set [8]. Kind of data set: Activity at human recombinant Nav 1.8 channel expressed in HEK293 cells in inactivated state with prepulse voltage of -40 mV assessed as blockade of TTx-resistant sodium current at 1 uM. It is filed as cell-based.
Data set [9] can be described thus: Activity at rat dorsal root ganglion in inactivated state with prepulse voltage of -40 mV assessed as blockade of TTx-resistant sodium current at 10 uM by whole-cell patch clamp technique. Type of data set: functional.
The target in data set [10] is T2, Nav1.5 (sodium channel protein type 5 subunit alpha) (Homo sapiens, UniProt Q14524). The data set can be described thus: Inhibition of human Nav1.5 channel at 1 uM. The following applies: human.
T2 sequence (Q14524 whole entry): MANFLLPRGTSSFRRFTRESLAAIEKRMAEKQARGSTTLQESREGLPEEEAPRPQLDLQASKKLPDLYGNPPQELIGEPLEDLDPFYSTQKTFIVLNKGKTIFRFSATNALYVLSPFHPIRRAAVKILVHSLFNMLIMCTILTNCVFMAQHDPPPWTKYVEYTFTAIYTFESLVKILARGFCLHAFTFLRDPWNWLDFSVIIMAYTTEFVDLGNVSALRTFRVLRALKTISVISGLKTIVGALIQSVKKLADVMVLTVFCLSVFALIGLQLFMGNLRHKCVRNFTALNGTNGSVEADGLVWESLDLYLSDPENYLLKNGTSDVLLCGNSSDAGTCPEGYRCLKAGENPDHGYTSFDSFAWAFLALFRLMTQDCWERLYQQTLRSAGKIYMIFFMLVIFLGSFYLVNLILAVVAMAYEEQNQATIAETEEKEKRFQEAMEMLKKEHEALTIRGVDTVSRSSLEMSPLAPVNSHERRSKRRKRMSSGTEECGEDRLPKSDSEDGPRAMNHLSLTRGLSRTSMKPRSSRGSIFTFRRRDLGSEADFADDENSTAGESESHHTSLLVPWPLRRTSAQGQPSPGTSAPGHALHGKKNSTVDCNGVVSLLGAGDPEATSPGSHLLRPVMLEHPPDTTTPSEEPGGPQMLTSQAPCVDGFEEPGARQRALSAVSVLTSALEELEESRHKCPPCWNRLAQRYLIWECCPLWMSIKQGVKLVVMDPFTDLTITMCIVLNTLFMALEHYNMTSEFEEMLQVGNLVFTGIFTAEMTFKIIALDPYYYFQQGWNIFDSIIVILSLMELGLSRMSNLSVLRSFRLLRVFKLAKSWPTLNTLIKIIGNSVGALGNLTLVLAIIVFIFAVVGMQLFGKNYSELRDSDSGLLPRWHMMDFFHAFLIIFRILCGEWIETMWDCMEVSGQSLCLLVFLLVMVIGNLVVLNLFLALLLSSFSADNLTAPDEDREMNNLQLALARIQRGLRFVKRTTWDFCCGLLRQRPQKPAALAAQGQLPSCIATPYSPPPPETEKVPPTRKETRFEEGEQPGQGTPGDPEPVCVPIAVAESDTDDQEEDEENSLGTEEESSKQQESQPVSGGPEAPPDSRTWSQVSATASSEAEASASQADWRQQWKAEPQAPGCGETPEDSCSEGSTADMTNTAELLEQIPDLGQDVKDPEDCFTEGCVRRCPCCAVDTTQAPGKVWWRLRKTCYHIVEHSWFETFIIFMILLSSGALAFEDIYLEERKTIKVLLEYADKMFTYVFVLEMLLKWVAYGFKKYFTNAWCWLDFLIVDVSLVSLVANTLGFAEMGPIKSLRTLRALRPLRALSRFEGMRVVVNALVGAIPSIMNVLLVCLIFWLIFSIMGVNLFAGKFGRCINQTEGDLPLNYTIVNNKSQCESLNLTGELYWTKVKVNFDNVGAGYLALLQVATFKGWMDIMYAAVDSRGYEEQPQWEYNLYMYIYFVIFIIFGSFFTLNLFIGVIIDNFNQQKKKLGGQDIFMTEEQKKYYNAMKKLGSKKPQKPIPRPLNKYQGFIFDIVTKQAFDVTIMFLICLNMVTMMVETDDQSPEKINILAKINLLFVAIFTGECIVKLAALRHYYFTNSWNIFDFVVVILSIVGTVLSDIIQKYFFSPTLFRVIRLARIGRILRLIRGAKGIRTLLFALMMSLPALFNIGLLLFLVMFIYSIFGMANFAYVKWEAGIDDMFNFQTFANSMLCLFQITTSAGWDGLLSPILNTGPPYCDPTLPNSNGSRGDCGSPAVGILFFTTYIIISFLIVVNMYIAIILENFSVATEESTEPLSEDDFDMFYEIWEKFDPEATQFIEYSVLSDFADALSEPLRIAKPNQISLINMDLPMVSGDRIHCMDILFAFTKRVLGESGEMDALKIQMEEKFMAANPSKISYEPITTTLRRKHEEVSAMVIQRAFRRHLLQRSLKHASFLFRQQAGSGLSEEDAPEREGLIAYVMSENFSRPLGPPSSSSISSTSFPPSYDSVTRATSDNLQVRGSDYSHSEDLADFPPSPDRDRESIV
In data set [11] the target is T1, Sodium channel protein type 10 subunit alpha. Kind of data set: Activity at human recombinant Nav 1.8 channel expressed in HEK293 cells in inactivated state with prepulse voltage of -40 mV assessed as blockade of TTx-resistant sodium current at 3 uM. Type of data set: cell-based.
The nature of data set [12]: Activity at rat dorsal root ganglion in inactivated state with prepulse voltage of -40 mV assessed as blockade of TTx-resistant sodium current at 1 uM by whole-cell patch clamp technique. It is filed as functional. For orientation: In patch-clamp work, channel activity is measured electrically.
Data set [13] can be described thus: Activity at rat dorsal root ganglion in resting state with prepulse voltage of -100 mV assessed as blockade of TTx-resistant sodium current at 10 uM by whole-cell patch clamp technique. Type of data set: functional.
A short description of data set [14]: Activity at rat dorsal root ganglion in resting state with prepulse voltage of -100 mV assessed as blockade of TTx-resistant sodium current at 1 uM by whole-cell patch clamp technique. Type of data set: functional.
The target in data set [15] is Voltage-gated inwardly rectifying potassium channel KCNH2 (Homo sapiens, UniProt Q12809). Kind of data set: Inhibition of hERG potassium channel expressed in CHO cells by isotope efflux assay.
Sequence of Voltage-gated inwardly rectifying potassium channel KCNH2 (Q12809 whole entry): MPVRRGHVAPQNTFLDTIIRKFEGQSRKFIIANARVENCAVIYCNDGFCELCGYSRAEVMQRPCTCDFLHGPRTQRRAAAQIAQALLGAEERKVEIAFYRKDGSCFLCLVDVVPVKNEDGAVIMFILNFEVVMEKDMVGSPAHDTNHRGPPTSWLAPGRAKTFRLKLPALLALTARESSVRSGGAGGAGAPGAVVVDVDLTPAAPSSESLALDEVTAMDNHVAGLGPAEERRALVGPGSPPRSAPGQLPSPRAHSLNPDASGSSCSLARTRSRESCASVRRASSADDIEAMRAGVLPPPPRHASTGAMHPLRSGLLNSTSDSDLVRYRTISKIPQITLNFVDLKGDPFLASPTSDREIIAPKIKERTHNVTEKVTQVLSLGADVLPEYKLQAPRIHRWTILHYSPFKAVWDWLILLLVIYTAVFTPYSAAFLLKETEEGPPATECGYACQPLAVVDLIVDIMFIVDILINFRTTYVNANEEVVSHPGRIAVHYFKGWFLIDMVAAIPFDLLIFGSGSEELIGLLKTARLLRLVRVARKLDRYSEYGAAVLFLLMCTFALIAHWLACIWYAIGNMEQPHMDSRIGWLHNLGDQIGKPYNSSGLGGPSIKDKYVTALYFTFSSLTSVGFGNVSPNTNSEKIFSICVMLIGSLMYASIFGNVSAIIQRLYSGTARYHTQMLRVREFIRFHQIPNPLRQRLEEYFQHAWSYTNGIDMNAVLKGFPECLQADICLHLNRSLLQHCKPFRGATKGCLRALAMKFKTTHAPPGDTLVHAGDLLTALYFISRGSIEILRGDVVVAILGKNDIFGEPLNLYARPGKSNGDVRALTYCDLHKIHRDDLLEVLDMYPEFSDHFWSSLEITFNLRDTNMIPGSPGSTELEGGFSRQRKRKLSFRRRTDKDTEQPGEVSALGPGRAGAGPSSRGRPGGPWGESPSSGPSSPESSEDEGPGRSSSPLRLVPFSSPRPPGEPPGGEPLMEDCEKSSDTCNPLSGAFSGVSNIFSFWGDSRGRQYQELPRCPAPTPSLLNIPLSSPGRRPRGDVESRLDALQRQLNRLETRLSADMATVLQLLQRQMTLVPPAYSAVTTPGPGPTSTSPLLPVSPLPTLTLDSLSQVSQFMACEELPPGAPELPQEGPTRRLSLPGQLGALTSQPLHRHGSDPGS
Data set [16] has as its target Sodium channel protein type 9 subunit alpha (Homo sapiens) (UniProt Q15858). The data set can be described thus: Inhibition of human Nav1.7 channel at 3 uM.
The target in data set [17] is T1, Sodium channel protein type 10 subunit alpha. The data set can be described thus: Activity at human recombinant Nav 1.8 channel expressed in HEK293 cells in resting state with prepulse voltage of -100 mV assessed as blockade of TTx-resistant sodium current at 0.03 uM. Type of data set: cell-based.
For data set [18], the target named is T2, Nav1.5 (sodium channel protein type 5 subunit alpha). Kind of data set: Inhibition of human Nav1.5 channel at 3 uM.
The target of data set [19] is T1, Sodium channel protein type 10 subunit alpha. The data set can be described thus: Inhibition of human recombinant Nav 1.8 channel expressed in HEK293 cells at 0.03 uM. It is filed as cell-based.
For data set [20], the target named is Sodium channel protein type 2 subunit alpha (Homo sapiens) (UniProt Q99250). The data set can be described thus: Inhibition of human Nav1.2 channel at 3 uM.
Data set [21] deals with T1, Sodium channel protein type 10 subunit alpha. Kind of data set: Activity at human recombinant Nav 1.8 channel expressed in HEK293 cells in inactivated state with prepulse voltage of -40 mV assessed as blockade of TTx-resistant sodium current at 0.3 uM. It is filed as cell-based.
Data set [22] has the same target. Kind of data set: Activity at human recombinant Nav 1.8 channel expressed in HEK293 cells in inactivated state with prepulse voltage of -40 mV assessed as blockade of TTx-resistant sodium current at 0.03 uM. It is filed as cell-based.
Data set [23] is described as follows: Activity at rat dorsal root ganglion in resting state with prepulse voltage of -100 mV assessed as blockade of TTx-resistant sodium current at 0.003 uM by whole-cell patch clamp technique. Type of data set: functional.
For data set [24], the target named is Sodium channel protein type 3 subunit alpha (Homo sapiens) (UniProt Q9NY46). Kind of data set: Inhibition of human Nav1.3 channel at 3 uM.
Data set [25] is described as follows: Activity at rat dorsal root ganglion in resting state with prepulse voltage of -100 mV assessed as blockade of TTx-resistant sodium current at 0.3 uM by whole-cell patch clamp technique. It is filed as functional.
A short description of data set [26]: Activity at rat dorsal root ganglion in inactivated state with prepulse voltage of -40 mV assessed as blockade of TTx-resistant sodium current at 0.003 uM by whole-cell patch clamp technique. Type of data set: functional.
The target of data set [27] is T1, Sodium channel protein type 10 subunit alpha. Kind of data set: Activity at human recombinant Nav 1.8 channel expressed in HEK293 cells in resting state with prepulse voltage of -100 mV assessed as blockade of TTx-resistant sodium current at 0.3 uM. It is filed as cell-based.
Data set [28] is described as follows: Activity at rat dorsal root ganglion in inactivated state with prepulse voltage of -40 mV assessed as blockade of TTx-resistant sodium current at 0.03 uM by whole-cell patch clamp technique. It is filed as functional.
The target in data set [29] is T1, Sodium channel protein type 10 subunit alpha. Kind of data set: Inhibition of human recombinant Nav 1.8 channel expressed in HEK293 cells at 0.3 uM. Type of data set: cell-based.
Data set [30] shares this target. Kind of data set: Inhibition of human recombinant Nav 1.8 channel expressed in HEK293 cells at 0.003 uM. Type of data set: cell-based.
The target is the same in data set [31]. Kind of data set: Activity at human recombinant Nav 1.8 channel expressed in HEK293 cells in resting state with prepulse voltage of -100 mV assessed as blockade of TTx-resistant sodium current at 0.003 uM. It is filed as cell-based.
For data set [32] the target is unchanged. The data set can be described thus: Activity at human recombinant Nav 1.8 channel expressed in HEK293 cells in resting state with prepulse voltage of -100 mV assessed as blockade of TTx-resistant sodium current at 0.001 uM. It is filed as cell-based.
Data set [33] can be described thus: Activity at rat dorsal root ganglion in inactivated state with prepulse voltage of -40 mV assessed as blockade of TTx-resistant sodium current at 0.3 uM by whole-cell patch clamp technique. Type of data set: functional.
Data set [34] concerns the target T1, Sodium channel protein type 10 subunit alpha. Kind of data set: Activity at human recombinant Nav 1.8 channel expressed in HEK293 cells in inactivated state with prepulse voltage of -40 mV assessed as blockade of TTx-resistant sodium current at 0.003 uM. It is filed as cell-based.
Data set [35] can be described thus: Activity at rat dorsal root ganglion in inactivated state with prepulse voltage of -40 mV assessed as blockade of TTx-resistant sodium current at 0.1 uM by whole-cell patch clamp technique. It is filed as functional.
In data set [36] the target is T1, Sodium channel protein type 10 subunit alpha. Kind of data set: Activity at human recombinant Nav 1.8 channel expressed in HEK293 cells in inactivated state with prepulse voltage of -40 mV assessed as blockade of TTx-resistant sodium current at 0.001 uM. It is filed as cell-based.
Data set [37] can be described thus: Activity at rat dorsal root ganglion in resting state with prepulse voltage of -100 mV assessed as blockade of TTx-resistant sodium current at 0.1 uM by whole-cell patch clamp technique. Type of data set: functional.
The target of data set [38] is Sodium channel protein type 2 subunit alpha (Homo sapiens) (UniProt Q99250). Kind of data set: Inhibition of human Nav1.2 channel at 0.1 uM.
In data set [39] the target is T2, Nav1.5 (sodium channel protein type 5 subunit alpha). Kind of data set: Inhibition of human Nav1.5 channel at 0.1 uM.

Broadly, the inhibition is the drop in the measured response relative to a control, in per cent. In general, IC50 refers to the concentration that gives 50% inhibition. `Cc1ccnc(NC(=O)c2ccc(-c3ccc(Cl)cc3)o2)c1`: the inhibition amounted to 42% in [1]; 81% in data set [2]; 58% in data set [4]; 5% in [5]; 12% in data set [6]; 83% in data set [7]. Further, the inhibition in data set [8] was determined as 42%; in data set [11], 81%. Also, the values for the IC50 in data set [3] and in [15] were 960 nM and above 30000 nM, respectively. Further, the inhibition at 10 µM in data set [9] and in data set [13] was 88% each time. Further, the values for the inhibition at 1 µM in data set [10], in data set [12] and in [14] were 24%, 36% and 9%, respectively.

Consider `CN(C)C1CCN(C(=O)c2ccc(-c3ccc(Cl)cc3)o2)CC1`, for which the IC50 in data set [3] is 5200 nM.

Take `N#CCc1cccc(NC(=O)c2ccc(-c3ccc(Cl)cc3)o2)c1`: the IC50 in data set [3] was 1700 nM.

Regarding `CN1CCCc2cc(NC(=O)c3ccc(-c4ccc(Cl)cc4)o3)ccc21`, the inhibition in data set [16] was 44%; in data set [17] it was 27%; in data set [19], 55%; in data set [20], 38%; in data set [21], 70%; in data set [22], 56%. Also, the inhibition in [24] was 37%; in data set [27], 66%; in data set [29], 70%. Further, the IC50 in data set [3] stood at 2900 nM; in [15], 5300 nM. Moreover, at 3 µM the inhibition in [18] was 71%. The results for the inhibition at 0.003 µM in data set [23] and in data set [26] were 31% and 44%, respectively. The inhibition at 0.3 µM in [25] stood at 28%. The inhibition at 0.03 µM in data set [28] was found to be 79%.

Turning to `Cc1cccc(NC(=O)c2ccc(-c3cccc(C#N)c3)o2)c1`, the 50% inhibitory concentration (IC50) in [3] turned out to be 30000 nM.

On to `O=C(Nc1cccc(N2CCOCC2)c1)c1ccc(-c2ccc(Cl)cc2)o1`, for which, in data set [3], the IC50 was found to be 4600 nM.

`O=C(Nc1ccc2cc[nH]c2c1)c1ccc(-c2ccc(Cl)cc2)o1`: the IC50 in data set [3] was 3100 nM.

Take `O=C(Nc1cccc(C2=NCCO2)c1)c1ccc(-c2ccc(Cl)cc2)o1`: in data set [3], the IC50 is 2500 nM.

With `O=C(NCCc1ccccc1Cl)c1ccc(-c2ccc(Cl)cc2)o1`, the IC50 in [3] stood at 1900 nM.

As for `Cc1ccccc1CNC(=O)c1ccc(-c2ccc(Cl)cc2)o1`, in [3], the IC50 worked out at 1100 nM.

On to `Cc1cc(NC(=O)c2ccc(-c3ccc(Cl)cc3)o2)ccn1`, for which the IC50 in data set [3] was determined as 2500 nM.

`Cc1cccc(NC(=O)c2ccc(-c3ccc(OC(F)(F)F)cc3)o2)c1`: the inhibition in [30] was determined as 73%; in data set [31], 33%; in data set [32], 7%; in data set [34], 73%; in data set [36], 40%; in data set [6] it was 84%. Further, the inhibition in [38] came out at 47%. Also, the half-inhibitory concentration (IC50) in data set [3] was 290 nM; in data set [15] it was above 30000 nM. Moreover, the inhibition at 0.3 µM was 63% in [33] and 30% in data set [25]. Besides, the inhibition at 0.1 µM in data set [35] was 40%; in data set [37], 25%; in data set [39], 52%. The same molecule returned an inhibition at 1 µM in [10] of 87%.
